Legend:
rabbits [1] = assay: Tissue hemoglobin and cytochrome c oxidase in rabbit muscle and brain (DOS, continuous wave near-infrared spectroscopy); format: in vivo
Experimental: NO-Cbi at a dose of 5 μg/kg/min (4.8 nmol/kg/min) was given to a 4 kg rabbit starting at 2 minutes and ending at 11.5 minutes; the drug's effect was monitored by diffuse optical spectroscopy (DOS) over the left thigh muscle. […] All of these changes reversed within 1 minute of stopping the NO-Cbi with a small overshoot in both the oxy- and deoxyhemoglobin concentrations.
NO-Cbi was given to a 3.9 kg rabbit at doses of 6.87, 3.44, and 1.72 μg/kg/min (6.6, 3.3, 1.7 nmol/kg/min), as indicated in the brown rectangular boxes corresponding to drug infusion rates of 1.8, 0.9, and 0.45 ml/min, respectively. Infusion times were for 10 minutes, followed by a 20 minute wash-out period. Oxy-, deoxy- and total hemoglobin concentrations were monitored in the brain by continuous wave near-infrared spectroscopy; changes in hemoglobin concentration are shown as relative units, because continuous wave spectroscopy is not quantitative due to light loss from scattering. As occurred in peripheral muscle (FIG. 7), NO-Cbi caused the deoxyhemoglobin concentration to increase and the oxyhemoglobin concentration to decrease. […] The gradual decrease in total hemoglobin over time was from blood sampling for blood gases and blood hemoglobin content. A dose response effect of NO-Cbi on all three hemoglobin concentration changes can be seen.
(§1) Continuous intravenous NO-Cbi infusions were performed in anesthetized rabbits with systemic hemodynamic monitoring, continuous gas exchange analysis, and diffuse optical spectroscopy (DOS) and continuous wave near-infrared spectroscopy monitoring. DOS monitoring was over muscle as a representation of peripheral tissue, and continuous wave spectroscopy was over muscle and brain region. Six animals have been studied to date, varying NO-Cbi infusion rates in each animal between 1.7 and 6.9 μg/kg/min (1.6 and 6.7 nmol/kg/min).

rabbits [2] = assay: Continuous intravenous infusion in anesthetized rabbits: systemic hemodynamics and gas exchange; format: in vivo, rabbit
Experimental: NO-Cbi was given by intravenous infusion at a dose of 5 μg/kg/min (4.8 nmol/kg/min) to a 3.5 kg rabbit. […] The infusion was stopped at 10 minutes, but, because of drawing blood through the arterial line for blood gas analysis, the first measurement of blood pressure occurred 6 minutes later. Full recovery required 12 minutes, but it is possible that the initial rate of recovery was faster than shown in the graph. A small overshoot occurred in both systolic and diastolic blood pressure, before returning to pre-treatment levels.
as §1
The blood pressure of rabbits is similar to that of humans, but because of anesthesia, initial blood pressures in the rabbits were on average ˜80/60 mm Hg (FIG. 6). […] Blood pressure returned to baseline within 12 minutes of stopping the infusion, and starting and stopping the infusion repeatedly yielded similar results.

isolated mouse hearts = assay: Coronary flow in isolated perfused mouse hearts (Langendorff)
Experimental: (§2) Hearts and aortas were removed from NIH Swiss mice anesthetized with sodium nembutal, and coronary flow was measured in the hearts using a Langendorff preparation (FIG. 5a) and relaxation of aortic rings was measured after inducing constriction of the rings with prostaglandin F2α (FIG. 5b). The hearts and aortic rings were treated with a range of concentrations of NO-Cbi (filled circles), nitroglycerin (open circles, dotted line, FIG. 5a), and sodium nitroprusside (open circles, FIG. 5b). Coronary flow was measured on the same hearts for both NO-Cbi and nitroglycerin after an appropriate wash-out period between drugs, and aortic ring relaxation was measured on two rings from the same aorta for NO-Cbi and sodium nitroprusside. The data are the mean of two independent experiments performed on two separate hearts in each experiment (FIG. 5a), and the mean±SEM of two independent experiments performed on three separate aortic rings in each experiment (FIG. 5b).
Coronary flow was measured in isolated perfused mouse hearts in a Langendorff system, and was 10.8±0.5 ml/min/g wet weight (n=7 hearts) under basal conditions. […] The latter value is similar to maximal coronary flow of 24.6±1.8 ml/min/g wet weight obtained with 62 μM adenosine. For nitroglycerin to increase coronary flow to that of NO-Cbi, the nitroglycerin concentration had to be increased to 770 μM, or about 100-fold greater than the NO-Cbi concentration (FIG. 5a).

mouse aortic rings = assay: Relaxation of mouse aortic rings constricted with prostaglandin F2α; conditions: rings pretreated with 2 μM prostaglandin F2α; read-out: EC50, concentration that induced half-maximal relaxation
Experimental: as §2
Relaxation of aortic contraction was measured in 3 mm rings cut from thoracic aortas of mice; the rings were pretreated with 2 μM prostaglandin F2α to produce 0.5-1 g of active tension.

D. melanogaster = assay: Nitrite and nitrate in extracts of injected flies; format: in vivo, Drosophila melanogaster; conditions: 1 μl of 1 mM NO-Cbi injected
Experimental: Nitrite and nitrate in extracts of NO-Cbi-injected flies were measured, and, as in the studies with CS-54 cells, a little over 50% of the injected NO as nitrite and nitrate was recovered (FIG. 3c). The nitrite/nitrate levels reached a maximum at 1 hour, and returned to that of water-injected flies at 4-5 hours (FIG. 3c). […] Nitrite and nitrate excretion likely explained the only partial recovery of NO.

New Zealand white rabbit = assay: Oral (nasogastric) NO-Cbi and rabbit blood pressure; format: in vivo
Experimental: An anesthetized New Zealand white rabbit was given NO-Cbi via a nasogastric tube at 10 and 100 (0.32 and 3.2 mg/kg) (FIG. 10a) or 10 and 50 (0.32 and 1.6 mg/kg) (FIG. 10b) times the dose used intravenously. Blood pressure was monitored continuously by an intra-arterial catheter, and was recorded every 5 minutes. The blood pressure was allowed to stabilize for 10 minutes prior to administering NO-Cbi.

mice = format: in vivo, mouse; conditions: 0.6 nmol three times at 32 minute intervals
[3] = tested on: vasodilator-stimulated phosphoprotein (VASP) phosphorylated on Ser239 in CS-54 rat vascular smooth muscle cells; assay: VASP phosphorylation in CS-54 cells (immunoblot); format: cell-based
Experimental: CS-54 rat vascular smooth muscle cells were treated with the indicated concentrations of NO-Cbi for 1 hour (A), or 10 μM NO-Cbi for the indicated times (B and C). […] In A and B, “Con” refers to control, which was cells treated with water. As indicated, the effects of 30 μM cobinamide (Cbi) and 100 μM 8-CPT-cGMP (cGMP) are shown for comparison. In A and B, similar results were obtained in two other experiments.
Briefly, cells treated with an NO-releasing agent were extracted rapidly in a sodium dodecyl sulfate (SDS) containing sample buffer, and the cell extracts were subjected to SDS-polyacrylamide gel electrophoresis. Phospho-VASP was assessed by immunoblotting using an antibody specific for VASP phosphorylated on Ser259 (Smolenski A et al. (1998) J. Biol. Chem. 273:20029-35).
To determine if NO released from NO-Cbi can have a physiologic effect in cultured cells, vasodilator-stimulated phosphoprotein (VASP) phosphorylation was assessed in CS-54 cells.

[4] = continuous gas exchange monitoring

## CC1=C2[N+]3=C(C=C4[N+]5=C(C(C)=C6[N]7C(C(CC(N)=O)C6(C)CCC(=O)NCC(C)O)C6(C)[N+](=C1C(CCC(N)=O)C6(C)CC(N)=O)[Co-3]753[N]=O)C(CCC(N)=O)C4(C)C)C(CCC(N)=O)C2(C)CC(N)=O (stereo not shown) [NO-Cbi, nitrosyl cobinamide]
Rabbits [1]; 5 μg/kg/min, thigh muscle, DOS
  time for changes to reverse after stopping NO-Cbi: ≤ 1 min
Rabbits [1]; brain
  total tissue hemoglobin: increased slightly in brain
Rabbits [1]; brain and muscle
  deoxyhemoglobin concentrations: increased deoxyhemoglobin concentrations
  hemoglobin oxygen saturation: decrease in hemoglobin oxygen saturation
  tissue oxyhemoglobin concentrations: decreased tissue oxyhemoglobin concentrations
Rabbits [1]; muscle
  cytochrome redox state: decreasing the cytochrome redox state
  total tissue hemoglobin: decreased slightly in muscle
Rabbits [2]; 5 μg/kg/min intravenous infusion
  time to new steady-state of blood pressure: 5 min
Rabbits [2]; 5 μg/kg/min intravenous infusion, 3.5 kg rabbit
  time until systolic and diastolic blood pressures began to decrease: ≤ 15 s
Rabbits [2]; 5 μg/kg/min, infusion stopped at 10 minutes
  time required for full recovery of blood pressure: 12 min
Rabbits [2]; [4]
  arterial-venous oxygen differences: increased arterial-venous oxygen differences
  end tidal CO2: decreased end tidal CO2
Rabbits [2]; equimolar amounts
  effects on blood pressure compared with nitroprusside: more rapid and pronounced than those with equimolar amounts of nitroprusside
Rabbits [2]; intravenous infusion
  cardiac output (direct Fick method): decreased
  heart rate: did not change significantly
  time for blood pressure to return to baseline after stopping the infusion: ≤ 12 min
Rabbits [2]; intravenous infusion 1.7 to 6.9 μg/kg/min
  blood pressure: marked infusion-rate-dependent decrease in blood pressure
Rabbits [2]; suggested by return of blood pressure
  physiological half-life of NO-Cbi: 5-6 minutes
Isolated mouse hearts
  low concentration that significantly increased coronary flow: 20 nM
Isolated mouse hearts; 7 μM infused
  coronary flow: 22.8±1.2 ml/min/g wet weight
  increase of coronary flow: more than two-fold
Mouse aortic rings
  EC50: 195 ± 12 nM
D. melanogaster
  injected NO recovered as nitrite and nitrate: over 50%
  time of maximum nitrite/nitrate levels: 1 h
  time of return of nitrite/nitrate levels to that of water-injected flies: 4 to 5 h
New Zealand white rabbit; 3.2 or 1.6 mg/kg via nasogastric tube
  blood pressure on the higher dose: steeper decrease
New Zealand white rabbit; low dose (0.32 mg/kg) via nasogastric tube
  time until blood pressure began to decrease: ≤ 10 min
New Zealand white rabbit; via nasogastric tube
  blood pressure after 100 or 180 minutes: remained lower than baseline
  duration of effect after each dose: at least 40 minutes
mice
  blood pressure and heart rate on repeated injections: a decrease in blood pressure and increase in heart rate was observed with each injection
[3]; 10 μM NO-Cbi
  course of VASP phosphorylation after the maximum: declined over the ensuing 4 hours
  time at which effect on VASP phosphorylation could be observed: 15 min
  time of maximal effect on VASP phosphorylation: 30 to 60 min
[3]; 1 to 30 μM, 1 hour, CS-54 cells
  VASP phosphorylation: induced VASP phosphorylation
